Experimental data taken from patent US20120065187A1 (ALCON RESEARCH, LTD, priority 2008, published 2012).
Structures can show the parent of a compound that is named as a salt.

Legend:
[1] = target: T1, human H4 (Homo sapiens, UniProt Q9H3N8); experiment: In vitro histamine receptor cell-based assay (aequorin bioluminescence), H4 antagonism; details: CHO-K1 cells expressing human H4, aequorin and Gα16; histamine at EC80; read-out: H4 Antagonist EC50
T1 construct: host or cells: CHO-K1
Method in brief: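 Antagonism read as loss of aequorin luminescence after histamine (EC80 final) addition, following 15 min room-temperature compound pretreatment of coelenterazine-h-loaded (5 μM) CHO-K1 cells co-expressing human H4 and Gα16. Efficacy given relative to 10 μM JNJ7777120; agonism excluded in separate no-histamine runs.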

[2] = target: T2, human H1 (Homo sapiens, UniProt P35367); experiment: In vitro histamine receptor cell-based assay (aequorin bioluminescence), H1 antagonism; details: CHO-K1 cells expressing human H1 and aequorin; histamine at EC80; read-out: H1 Antagonist EC50
T2 construct: host or cells: CHO-K1
Method: The cell-based assays utilize an aequorin dependent bioluminescence signal. Doubly-transfected, stable CHO-K1 cell lines expressing human H1 or H4, mitochondrion-targeted aequorin, and (H4 only) human G protein Gα16 are obtained from Perkin-Elmer. Cells are maintained in F12 (Ham's) growth medium, containing 10% (vol./vol.) fetal bovine serum, penicillin (100 IU/mL), streptomycin (0.1 mg/mL), zeocin (0.25 mg/mL) and geneticin (0.40 mg/mL). Cell media components are from Invitrogen, Inc. One day prior to assay, the growth medium is replaced with the same, excluding zeocin and geneticin.
For assay preparation, growth medium is aspirated, and cells are rinsed with calcium-free, magnesium-free phosphate-buffered saline, followed by two to three minute incubation in Versene (Invitrogen, Inc.) at 37° C. Assay medium (DMEM:F12 [50:50], phenol-red free, containing 1 mg/mL protease-free bovine serum albumin) is added to collect the released cells, which are then centrifuged. The cell pellet is re-suspended in assay medium, centrifuged once more, and re-suspended in assay medium to a final density of 5×10^6 cells/mL. Coelenterazine-h dye (500 μM in ethanol) is added to a final concentration of 5 μM, and mixed immediately. The conical tube containing the cells is then wrapped with foil to protect the light-sensitive dye. The cells are incubated for four hours further at room temperature (approximately 21° C.) with end-over-end rotation to keep them in suspension.
Just before assay, the dye-loaded cells are diluted to 0.75×10^6 cells/mL (H1 receptor) or 1.5×10^6 cells/mL (H4 receptor) with additional assay medium. Cells are dispensed to 1536 well micro-titer plates at 3 μL/well. To assay receptor antagonism, 60 nl of 100× concentration test compounds in 100% dimethyl sulfoxide (DMSO) are dispensed to the wells, one compound per well, by passive pin transfer, and the plates are incubated for 15 minutes at room temperature. Assay plates are then transferred to a Lumilux bioluminescence plate reader (Perkin-Elmer) equipped with an automated 1536 disposable tip pipette. The pipette dispenses 3 μL/well of agonist (histamine, at twice the final concentration, where final concentration is a previously determined EC80) in assay medium, with concurrent bioluminescence detection. Agonist activity of test compounds is excluded by separate assays that measure response to test compounds immediately, without added histamine agonist.
CCD image capture on the Lumilux includes a 5 second baseline read prior to agonist addition, and generally a 40 second read per plate after agonist addition. A decrease in bioluminescence signal (measured either as area-under-the-curve, or maximum signal amplitude minus minimum signal amplitude) correlates with receptor antagonism in a dose dependent manner. The negative control is DMSO lacking any test compound. For antagonist assays, the positive controls are diphenhydramine (2-Diphenylmethoxy-N,N-dimethylethylamine, 10 μM final concentration, H1 receptor) or JNJ7777120 (1-[(5-Chloro-1H-indol-2-yl)carbonyl]-4-methyl-piperazine, 10 μM final concentration, H4 receptor). Efficacy is measured as a percentage of positive control activity.

T1 sequence (Q9H3N8 whole entry): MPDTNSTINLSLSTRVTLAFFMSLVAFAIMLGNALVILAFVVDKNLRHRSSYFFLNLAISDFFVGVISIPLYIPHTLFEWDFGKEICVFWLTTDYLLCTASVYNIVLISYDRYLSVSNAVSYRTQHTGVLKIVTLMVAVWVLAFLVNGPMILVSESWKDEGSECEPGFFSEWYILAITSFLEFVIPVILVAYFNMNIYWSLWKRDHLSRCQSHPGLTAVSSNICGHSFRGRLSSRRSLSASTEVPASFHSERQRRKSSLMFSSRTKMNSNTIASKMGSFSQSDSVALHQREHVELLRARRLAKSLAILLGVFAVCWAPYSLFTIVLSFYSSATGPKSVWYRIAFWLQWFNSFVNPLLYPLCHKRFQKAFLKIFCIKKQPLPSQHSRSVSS
T2 sequence (P35367 whole entry): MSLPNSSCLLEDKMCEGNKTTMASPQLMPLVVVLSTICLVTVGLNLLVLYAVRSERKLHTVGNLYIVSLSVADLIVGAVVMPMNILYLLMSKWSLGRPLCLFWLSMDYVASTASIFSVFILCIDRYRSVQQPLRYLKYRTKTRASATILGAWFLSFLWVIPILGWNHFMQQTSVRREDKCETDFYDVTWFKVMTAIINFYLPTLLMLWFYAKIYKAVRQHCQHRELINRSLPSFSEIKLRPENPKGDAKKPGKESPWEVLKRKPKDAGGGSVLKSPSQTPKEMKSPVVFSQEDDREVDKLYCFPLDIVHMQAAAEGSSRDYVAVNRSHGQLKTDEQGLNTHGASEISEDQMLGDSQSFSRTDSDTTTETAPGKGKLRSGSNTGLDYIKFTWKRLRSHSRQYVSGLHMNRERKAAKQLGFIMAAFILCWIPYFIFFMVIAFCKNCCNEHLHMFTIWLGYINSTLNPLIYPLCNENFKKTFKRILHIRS

Row | SMILES | EC50 [1] [µM] | EC50 [2] [µM]
1 | Clc1ccc2nc(OC3CNC3)c3nncn3c2c1 [Example 72, 4-(azetidin-3-yloxy)-8-chloro-[1,2,4]triazolo[4,3-a]quinoxaline] | > 10 | > 10
2 | CN1CC=C(c2nc3ccc(Cl)cc3n3cnnc23)CC1 [Example 2, 8-Chloro-4-(1-methyl-1,2,3,6-tetrahydropyridin-4-yl)-[1,2,4]triazolo[4,3-a]quinoxaline] | < 10 | > 10
3 | CN1CCN(c2nc3ccc(Cl)cc3c3ncnn23)CC1 [Example 111, 9-chloro-5-(4-methylpiperazin-1-yl)-[1,2,4]triazolo[1,5-c]quinazoline] | < 10 | > 10
4 | Fc1cc2nc(N3CCNCC3)c3nncn3c2cc1Br [Example 184, 8-bromo-7-fluoro-4-(piperazin-1-yl)-[1,2,4]triazolo[4,3-a]quinoxaline] | < 10 | > 10
5 | Clc1ccc2nc(N3CCNCC3)n3nc(Cc4ccccc4)nc3c2c1 [Example 119, 2-Benzyl-9-chloro-5-(piperazin-1-yl)-[1,2,4]triazolo[1,5-c]quinazoline] | > 10 | > 10
6 | Brc1ccc2c(c1)nc(N1CCNCC1)c1nncn12 [Example 53, 7-bromo-4-(piperazin-1-yl)-[1,2,4]triazolo[4,3-a]quinoxaline] | > 10 | > 10
7 | NCCNc1nc2ccc(Cl)cc2n2cnnc12 [Example 70, N^1-(8-chloro-[1,2,4]triazolo[4,3-a]quinoxalin-4-yl)ethane-1,2-diamine] | > 10 | > 10
8 | Cc1nc2c3cc(F)c(F)cc3nc(N3CCNCC3)n2n1 [Example 98, 8,9-Difluoro-2-methyl-5-(piperazin-1-yl)-[1,2,4]triazolo[1,5-c]quinazoline] | < 10 | > 10
9 | CN1CCN(c2nc3ccc(Cl)cc3c3ocnc23)CC1 [Example 141, 8-chloro-4-(4-methylpiperazin-1-yl)oxazolo[4,5-c]quinoline] | < 10 | < 10
10 | Fc1cc2nc(N3CCNCC3)c3nccn3c2cc1Cl [Example 180, 8-chloro-7-fluoro-4-(piperazin-1-yl)imidazo[1,2-a]quinoxaline] | < 10 | < 10
11 | Cc1nnc2c(N3CCN(C)CC3)nc3ccc(Cl)cc3n12 [Example 84, 8-chloro-1-methyl-4-(4-methylpiperazin-1-yl)-[1,2,4]triazolo[4,3-a]quinoxaline] | < 10 | > 10
12 | Cc1nc2c3cc(Cl)ccc3nc(N3CCN4CCCC4C3)n2n1 (centres unmarked) [Example 245, 9-chloro-5-(hexahydropyrrolo[1,2-a]pyrazin-2(1H)-yl)-2-methyl-[1,2,4]triazolo[1,5-c]quinazoline] | < 10 | < 10
13 | CN1CCN(c2nc3cc(Cl)c(F)cc3n3cnnc23)CC1 [Example 33, 7-chloro-8-fluoro-4-(4-methylpiperazin-1-yl)-[1,2,4]triazolo[4,3-a]quinoxaline] | < 10 | > 10
14 | Clc1ccc2nc(OC3CCNCC3)c3nncn3c2c1 [Example 74, 8-chloro-4-(piperidin-4-yloxy)-[1,2,4]triazolo[4,3-a]quinoxaline] | > 10 | > 10
15 | CN1CCN(c2nc3cc(C(F)(F)F)c(F)cc3n3cnnc23)CC1 [Example 42, 8-fluoro-4-(4-methylpiperazin-1-yl)-7-(trifluoromethyl)-[1,2,4]triazolo[4,3-a]quinoxaline] | < 10 | > 10
16 | CN1CCC(c2nc3ccc(Cl)cc3n3cnnc23)CC1 [Example 4, 8-Chloro-4-(1-methylpiperidin-4-yl)-[1,2,4]triazolo[4,3-a]quinoxaline] | < 10 | > 10

Row | SMILES | EC50 [1] [µM] | EC50 [2] [µM]
17 | Cc1nc2c3cc(C(F)(F)F)c(Cl)cc3nc(N3CCN(C)CC3)n2n1 [Example 122, 8-chloro-2-methyl-5-(4-methylpiperazin-1-yl)-9-(trifluoromethyl)-[1,2,4]triazolo[1,5-c]quinazoline] | < 10 | > 10
18 | C=Cc1ccc2nc(N3CCNCC3)n3nc(C)nc3c2c1 [Example 138, 2-methyl-5-(piperazin-1-yl)-9-vinyl-[1,2,4]triazolo[1,5-c]quinazoline] | < 10 | > 10
19 | Clc1ccc2nc(NCCN3CCOCC3)c3nncn3c2c1 [Example 71, 8-chloro-N-(2-morpholinoethyl)-[1,2,4]triazolo[4,3-a]quinoxalin-4-amine] | > 10 | > 10
20 | Fc1c(C(F)(F)F)ccc2nc(N3CCNCC3)c3nnnn3c12 [Example 172, 9-fluoro-4-(piperazin-1-yl)-8-(trifluoromethyl)tetrazolo[1,5-a]quinoxaline] | < 10 | > 10
21 | CN1CCN(c2nc3cc(Cl)ccc3n3nnnc23)CC1 [Example 17, 7-Chloro-4-(4-methylpiperazin-1-yl)tetrazolo[1,5-a]quinoxaline] | < 10 | > 10
22 | CN1CCN(c2nc3cc(Br)ccc3n3cnnc23)CC1 [Example 193, 7-bromo-4-(4-methylpiperazin-1-yl)-[1,2,4]triazolo[4,3-a]quinoxaline] | < 10 | > 10
23 | Cc1ccc2nc(N3CCN(C)CC3)c3nnnn3c2c1 [Example 15, 8-methyl-4-(4-methylpiperazin-1-yl)tetrazolo[1,5-a]quinoxaline] | < 10 | > 10
24 | CC(C)c1nc2c3cc(Cl)ccc3nc(N3CCNCC3)n2n1 [Example 117, 9-Chloro-2-isopropyl-5-(piperazin-1-yl)-[1,2,4]triazolo[1,5-c]quinazoline] | > 10 | > 10
25 | Clc1ccc2nc(N3CCNCC3)n3ncnc3c2c1 [Example 92, 9-Chloro-5-(piperazin-1-yl)-[1,2,4]triazolo[1,5-c]quinazoline] | < 10 | > 10
26 | Clc1ccc2nc(N3CCN4CCCC4C3)c3nncn3c2c1 (centres unmarked) [Example 65, 8-chloro-4-(hexahydropyrrolo[1,2-a]pyrazin-2(1H)-yl)-[1,2,4]triazolo[4,3-a]quinoxaline] | < 10 | > 10
27 | FC(F)(F)c1ccc2c(c1)nc(N1CCNCC1)c1nnnn12 [Example 30, 4-(piperazin-1-yl)-7-(trifluoromethyl)tetrazolo[1,5-a]quinoxaline hydrochloride] | < 10 | > 10
28 | CN1CCN(c2nc3c(F)cc(Cl)cc3n3cnnc23)CC1 [Example 197, 8-chloro-6-fluoro-4-(4-methylpiperazin-1-yl)-[1,2,4]triazolo[4,3-a]quinoxaline] | < 10 | > 10
29 | CCc1ccc2nc(N3CCNCC3)c3nncn3c2c1 [Example 91, 8-ethyl-4-(piperazin-1-yl)-[1,2,4]triazolo[4,3-a]quinoxaline] | < 10 | > 10
30 | Clc1ccc2nc(N3CCN(C4CC4)CC3)c3nncn3c2c1 [Example 64, 8-chloro-4-(4-cyclopropylpiperazin-1-yl)-[1,2,4]triazolo[4,3-a]quinoxaline] | < 10 | > 10
31 | Cc1nc2c3ccc(C(F)(F)F)cc3nc(N3CCNCC3)n2n1 [Example 110, 2-Methyl-5-(piperazin-1-yl)-8-(trifluoromethyl)-[1,2,4]triazolo[1,5-c]quinazoline] | < 10 | > 10
